Source: patent US4636499A, “Sulphenamides” (priority 1984, dated 1987)

Tests used:
[1] = test system: ethanol-induced gastric lesions; assay: In vivo cytoprotective effect: effect on ethanol-induced gastric lesions in the rat; set-up: species or system rat (female Spraque-Dawley); details: for total lengths of lesions in the stomachs: 20 μmol/kg oral
Procedure: III. In vivo cytoprotective effect: Effect on ethanol-induced gastric lesions in the rat
Two groups of female Spraque-Dawley rats (190-220 g) were used, one for the test compound and one for the control experiment. Food, but not water, was removed 24 h before the experiments.
The animals in the test group were treated orally with the test compound dissolved in 0.01M HCl immediately before the test and the animals in the control group were given the vehicle (0.01M HCl) in a dose of 1 ml/kg.
Five or thirty minutes later the rats were given orally 1 ml of absolute ethanol (a standard agent for inducing gastric mucosal lesions).
Thirty minutes later the rats were killed by carbon dioxide asphyxiation, their stomachs dissected out and the gastric mucosae were examined for the presence of necrotic lesions. The total lengths of the lesions in the stomachs were measured in the test group and in the control group, in both cases treated five and thirty minutes before with ethanol.

gastric acid secretion = assay: Inhibiting effect in vivo on gastric acid secretion in conscious dog; details: 4 μmol/kg; orally by stomach tube; histamine-induced; gastric fistula dogs
Procedure: II. Inhibiting effect in vivo on gastric acid secretion in conscious dog
Chronic gastric fistula dogs were used. These dogs have been surgically provided with a gastric cannula in the stomach and a duodenal fistula used for direct intraduodenal administration of test compounds. Following a 4 weeks' recovery period after surgery, tests were performed once a week on each dog. Food and water were withdrawn 18 hours before each test.
The test compound was suspended in 0.5% Methocel® (90 HG, 15.000, Dow Chem Corp.), the pH was immediately adjusted to about 4 by addition of hydrochloric acid and the suspension administered orally by using a stomach tube. After 1 hour gastric acid secretion was induced by continuous infusion of histamine at individual doses (400-600 nmol/kg, h), resulting in approx. 90% of maximal secretion of gastric acid. The gastric juice was collected by free flow from the gastric cannula in consecutive 30 minutes samples for 2 hours. The samples were titrated to pH 7.0 with 0.1M NaOH using a Radiometer automatic titrator and the acid output was calculated. The percent inhibition of acid secretion was calculated by comparing in each dog the acid output in the tests to the acid output in control tests when only the vehicle was given. The peak inhibitory effect for each compound was determined. […]

[2] = target: T1, Hog gastric H^+,K^+ -ATPase (Sus scrofa, UniProt P19156); assay: In vitro inhibition of gastric H^+,K^+-ATPase; assay type: biochemical; details: pH 7,4; 30 minutes of incubation; 10 μg membrane protein (GI-fraction); read-out: concentration at half-maximal inhibition (IC50) (converted)
T1 construct: from tissue; host or cells: hog gastric membranes (GI-fraction)
T1 sequence (P19156 2-1034 limits assumed): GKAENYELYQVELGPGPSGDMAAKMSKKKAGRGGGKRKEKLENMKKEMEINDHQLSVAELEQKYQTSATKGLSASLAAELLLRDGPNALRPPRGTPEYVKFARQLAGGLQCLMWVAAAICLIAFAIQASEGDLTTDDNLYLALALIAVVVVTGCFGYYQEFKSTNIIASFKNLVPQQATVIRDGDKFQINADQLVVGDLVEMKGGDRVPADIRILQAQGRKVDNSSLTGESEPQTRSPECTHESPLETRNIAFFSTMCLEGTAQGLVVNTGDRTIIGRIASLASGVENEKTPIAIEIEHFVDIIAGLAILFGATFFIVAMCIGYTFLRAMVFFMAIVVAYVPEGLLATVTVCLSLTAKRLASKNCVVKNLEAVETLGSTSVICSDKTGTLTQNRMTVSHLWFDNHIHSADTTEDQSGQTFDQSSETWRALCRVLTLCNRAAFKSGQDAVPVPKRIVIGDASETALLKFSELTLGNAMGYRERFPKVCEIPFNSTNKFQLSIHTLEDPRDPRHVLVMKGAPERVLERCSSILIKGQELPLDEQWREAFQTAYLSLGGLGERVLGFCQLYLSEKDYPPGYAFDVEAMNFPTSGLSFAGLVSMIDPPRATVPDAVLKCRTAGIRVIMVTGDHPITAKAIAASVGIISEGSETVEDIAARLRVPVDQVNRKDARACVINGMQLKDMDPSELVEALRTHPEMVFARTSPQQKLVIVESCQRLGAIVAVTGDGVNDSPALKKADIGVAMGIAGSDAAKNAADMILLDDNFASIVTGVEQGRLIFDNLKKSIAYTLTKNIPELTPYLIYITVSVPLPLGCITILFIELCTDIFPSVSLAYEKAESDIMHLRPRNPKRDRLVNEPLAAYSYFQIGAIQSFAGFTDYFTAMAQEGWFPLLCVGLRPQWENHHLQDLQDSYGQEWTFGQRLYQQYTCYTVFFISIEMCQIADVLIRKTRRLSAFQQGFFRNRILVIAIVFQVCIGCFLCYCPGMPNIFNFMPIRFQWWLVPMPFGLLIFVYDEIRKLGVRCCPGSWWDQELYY
T1 sequence (P18434 whole entry partner): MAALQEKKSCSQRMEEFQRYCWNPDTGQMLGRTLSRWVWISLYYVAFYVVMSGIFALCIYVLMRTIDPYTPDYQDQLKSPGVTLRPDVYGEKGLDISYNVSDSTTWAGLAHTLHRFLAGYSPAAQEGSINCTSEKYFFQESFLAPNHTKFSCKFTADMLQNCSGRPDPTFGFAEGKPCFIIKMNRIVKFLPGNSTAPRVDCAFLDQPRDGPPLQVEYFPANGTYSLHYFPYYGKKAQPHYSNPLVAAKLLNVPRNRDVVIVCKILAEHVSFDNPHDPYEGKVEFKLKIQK
Procedure: I. In vitro inhibition of gastric H^+,K^+ -ATPase
Hog gastric H^+,K^+ -ATPase was purified according to Saccomani et al., Biochim. Biophys. Acta 465, 311-330, 1977. 10 μg of membrane protein (GI-fraction in the reference listed above) was incubated with 2 mmol/l of piperazine-N,N'-bis-(2-ethane sulfonic acid) buffer pH 7,4 and the test compound in concentrations 10^-7 -10^-4 M in a final volume of 1 ml. (The test compound was dissolved in methanol. Aliquots of these stock solutions were diluted to a final methanol concentration below 1%, which on its own had no effect on the enzyme activities.) After 30 minutes of incubation, the remaining H^+,K^+ -ATPase activity was determined, according to Wallmark et al., Biochim. Biophys. Acta, 728, 31-38, 1983. A dose-response curve was constructed and the concentration at half-maximal inhibition (IC50) could be determined.

2,4-Dimethyl-3,9-dimethoxy-5H-pyrido[1',2':4,5][1,2,4]thiadiazino[2,3-a]benzimidazol-13-ium tetrafluoroborate (1A) and 2,4-Dimethyl-3,10-dimethoxy-5H-pyrido[1',2':4,5][1,2,4]thiadiazino[2,3-a]benzimidazol-13-ium tetrafluoroborate (1B) (isomeric mixture) [Examples 1A and 1B]
total lengths of lesions in the stomachs ([1]; 5 min before ethanol, control 11.4 cm): 5.3 cm
total lengths of lesions in the stomachs ([1]; 30 min before ethanol, control 10.4 cm): 4.4 cm
ED50-value (cytoprotective effect) ([1]; oral, ethanol-induced gastric lesions, indicated by lesion reduction at 20 μmol/kg): below 20 μmol/kg
percent inhibition of acid secretion (peak inhibitory effect) (gastric acid secretion): 40%
IC50 [2]: 600 nM
